In patent US20210198259A1, “HETEROCYCLIC DERIVATIVES AND USE THEREOF” (C&C RESEARCH LABORATORIES, priority 2018, published 2021):

Experiments:
[1] = Test for pharmacokinetics in ICR mice (oral); format: in vivo; conditions: 50 mg/kg, ICR mouse, 5 mg/mL solution at 10 mL/kg, plasma
Protocol: As the administration solution for mice of the compounds prepared in the above
Examples, the compound of Example 55 of International Publication No. WO 2010/030785 and the compound of Example 4 of International Publication No. WO 2013/048214, 20% hydroxypropyl-β-cyclodextrin solution (99.75%) and 2N HCl (0.25%) were added sequentially to make 5 mg/mL. Provided that in the case of the compound of Example 10, 99.5% of 20% hydroxypropyl-β-cyclodextrin solution and 0.5% of 2N HCl […] were added.
The weight of each ICR mouse was properly 20-30 g. Dosage of the compound of the present invention was 10 mL/kg, and administered orally using Zonde. Blood collection was performed at 0.5, 1, 2, 4, 7 and 24 hours by orbital venous blood collection using a capillary tube coated with an anticoagulant, and then plasma was isolated using a centrifuge and kept in a freezer.
Plasma collected from animals and standard concentration material were pre-treated using solid-phase extraction, and concentration of the compound of the invention was determined using a liquid chromatography mass spectrometer (Agilent HPLC, API-4000 Qtrap). According to the resulting concentration value, the pharmacokinetics parameter was found using WinNonlin (Version 7.0) and half-life (t1/2), maximum blood concentration (Cmax) and area under the curve (AUCall) are represented in Table 2.

[2] = molecular target: T1, human histamine 4 receptor (hH4R) (Homo sapiens, UniProt Q9H3N8); test: Binding affinity of human histamine 4 receptor (hH4R), [3H] histamine displacement; conditions: [3H] labeled histamine, hH4R-overexpressed cell membrane
T1 construct: purchased Multispan
T1 sequence (Q9H3N8 whole entry): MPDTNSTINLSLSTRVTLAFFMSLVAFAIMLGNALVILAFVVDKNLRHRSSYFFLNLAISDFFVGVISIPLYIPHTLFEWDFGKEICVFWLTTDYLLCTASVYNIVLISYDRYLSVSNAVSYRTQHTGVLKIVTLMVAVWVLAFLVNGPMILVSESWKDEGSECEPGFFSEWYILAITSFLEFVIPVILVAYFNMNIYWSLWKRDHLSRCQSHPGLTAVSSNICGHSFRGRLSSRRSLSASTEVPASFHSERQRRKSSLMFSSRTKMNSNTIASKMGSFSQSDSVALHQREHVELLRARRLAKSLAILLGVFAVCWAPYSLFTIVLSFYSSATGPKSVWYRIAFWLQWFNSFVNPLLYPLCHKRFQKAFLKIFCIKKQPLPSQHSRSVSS
Protocol: The compounds prepared in the above Examples, the compound of Example 55 of International Publication No. WO 2010/030785 and the compound of Example 4 of International Publication No. WO 2013/048214 were diluted by 1,000 fold (v/w) with DMSO, and then 1 mL of the diluted compound solution was mixed with 99 mL of the analysis buffer solution (50 mM tris-HCl pH 7.4, 5 mM EDTA) to obtain concentration of 1 μM. […] of the prepared compound solution was transferred to each well of a 96-well plate, and then 20 mL of 100 μM histamine diluted with analysis buffer solution and 1% DMSO were transferred to each well to calculate non-specific binding and total binding degree. 15 μg of human histamine 4 receptor-overexpressed cell membrane (Multispan) was diluted into […] of analysis buffer solution and that was transferred to each well. [^3H] labeled histamine (PerkinElmer) was diluted into 10 nM concentration, 20 mL was allocated in each well, and then it was kept in a 27° C. incubator for 30 minutes. After the reaction, 100 mL of the mixture was transferred to a glass fiber plate in which 0.5% polyethylene amine was pre-soaked, and then non-binding [^3H] labeled histamine was removed in vacuum. After 6 times washing with 200 mL of washing buffer solution (50 mM tris-HCl, pH 7.4), the plate was dried in a 37° C. oven for 18 hours. […] of betaScint cocktail solution was added to each well, and after 10 minutes CPM (count per minute) value of [^3H] labeled histamine was measured by the use of Micro beta2™. The binding affinity (% inhibition) of the human histamine 4 receptor for the compounds of the present invention was analyzed by an Excel program, and the results of analysis are represented in Table 1.

ICR mice = test: Histamine-induced itching model in ICR mice; format: in vivo, mouse; conditions: 50 mg/kg oral, scratches counted for 20 minutes
Protocol: Female, ICR mice (8 weeks old) were purchased from OrientBio Co., Ltd. The animals were housed under conditions of controlled temperature (23±3° C.), humidity (50±5%) and lighting with food and water available ad libitum. Water and food were stopped 1 hour before the experiment.
For easy intradermal injection of pruritogen (histamine, dissolved in saline injection solution to make the concentration of 300 nmol per 40 μL) the hair was clipped using clippers (8000AD, THRIVE) over the rostral part of the back 24 hours before the experiment under inhalation anesthesia with isoflurane. Mice (n=10 per group) were divided into 5 groups (normal group, control group and 3 experimental groups). […] At the end of the filming, the number of scratches of the test animals was counted during 20 minutes after histamine administration using the recorded video. The number of scratches was counted a series of actions from scratching with the rear foot of the animal to the time of taking the rear foot to the mouth as one time (J. Allergy Clin. Immunol. 2007, 19(1), 176-183). All data were analyzed by using Excel and Prism, and the number of scratching of each group is expressed as the mean±S.E.M. The inhibitory effect of compounds is shown as a percentage of the maximal response to histamine (100% control group). Statistical analysis was analyzed using one-way ANOVA with Dunnett test. […]

CNC1CN(C2=Nc3ccc(Br)cc3N3CC(=O)N=C23)C1 [Example 13, 8-bromo-4-(3-(methylamino)azetidin-1-yl)imidazo[1,2-a]quinoxalin-2(1H)-one]
AUC [1]: 30500 ng·h/mL | Cmax [1]: 2500 ng/mL | Human histamine 4 receptor (hH4R) binding affinity (% inhibition at 1 μM) [2]: 95.8% | Inhibitory rate (%) After 30 minutes (ICR mice; histamine given 30 minutes after dosing): 131% | Inhibitory rate (%) After 7 hours (ICR mice; histamine given 7 hours after dosing): 99.0%
